Test system: children with hypochondroplasia
Set-up: species or system human
Details: in vivo
Source text: The study has 3 prespecified co-primary outcomes: 1. To evaluate the safety and tolerability of daily subcutaneous injections of vosoritide administered for 12 months in patients with selected genetic causes of short stature, 2. To evaluate the change from baseline in age-sex standardized annualized growth velocity after 12 months of daily SC injections of vosoritide in patients with selected genetic causes of short stature, and 3. To evaluate the change from baseline in age-sex standardized height SDS after 12 months of daily SC injections of vosoritide in patients with selected genetic causes of short stature. Annualized growth velocity was standardized using data from the First Zurich Longitudinal Study of Growth and Development[9] as it includes growth velocity data starting at age 2.5 years. Height SDS was calculated using the United States CDC growth charts.[8] Hypochondroplasia specific height SDS was calculated using recently published hypochondroplasia growth curves.[10] To measure these outcomes, the following 3 co-primary endpoints were specified: 1. The incidence of adverse events per participant, 2. The change from baseline in age-sex standardized annualized growth velocity after 12 months of treatment, and 3. The change from baseline in age-sex standardized height SDS after 12 months of treatment. Height was measured five times at each study visit on a wall-mounted calibrated Harpenden stadiometer. The average of all five values was used. Safety assessments included routine laboratory evaluations at each visit, baseline and Month 12 echocardiograms, electrocardiograms at each visit, vital signs measurements, and spine X-rays at Day 1 and Month 12. No formal power calculations were done for this proof of principle study. Sample size was determined based on logistical feasibility. Medication adherence was calculated using the number of returned empty vials divided by the number of days of prescribed therapy. Demographics and clinical characteristics were summarized with mean and standard deviation (SD), median and interquartile (IQR) for numerical variables, frequency and proportion for categorical variables. Primary and secondary clinical outcomes were summarized with mean (SD) for the 6-month observation period and the 12-month treatment period. Paired t-tests were carried out to compare the difference between the treatment and observation periods. The corresponding p-value and 95% confidence interval (CI) were reported. Box and whisker plots were used for both primary endpoints (annualized growth velocity and height SDS) and exploratory endpoints (CXM and cGMP) to visualize the trends for the change from baseline to each of the follow-up visits. Safety data (AEs) were summarized as count and percentage of patients as well as the number of total occurrences per each listed AE for the observation period and the treatment period, respectively. As exploratory analyses, the primary endpoints were stratified based on age, baseline growth velocity and baseline height SDS. The summaries of mean (SD) for each visit, mean differences between treatment and observation periods, and the corresponding p-value and 95% CI were all reported. Parent reported quality of life using the […] scale was also reported with a similar tabular format. Data were analyzed using SAS for Windows version 9.4 (SAS Institute Inc., Cary, NC). A two-sided test with a significance level of 0.05 was used for all hypothesis tests.

## PGQEHPNARKYKGANKKGLSKGCFGLKLDRIGSMSGLGC (disulfide) [vosoritide, recombinant 39-amino-acid C-type natriuretic peptide analog expressed in E. coli, cyclic by an intramolecular disulfide bond]
  Abdominal pain: # of patients: 5
  Abdominal pain: # of total occurrences: 15
  Abdominal pain: % of patients: 20.8%
  Any injection site reaction (overall): # of patients: 20
  Any injection site reaction (overall): # of total occurrences: 329
  Any injection site reaction (overall): % of patients: 83.3%
  Assay for drug induced anti-platelet antibodies: negative
  Cough: # of patients: 12
  Cough: # of total occurrences: 20
  Cough: % of patients: 50.0%
  Diarrhea: # of patients: 2
  Diarrhea: # of total occurrences: 3
  Diarrhea: % of patients: 8.3%
  Discontinuation due to a treatment related adverse event: No participants discontinued treatment
  Dizziness: # of patients: 3
  Dizziness: # of total occurrences: 4
  Dizziness: % of patients: 12.5%
  Ear infection: # of patients: 2
  Ear infection: # of total occurrences: 2
  Ear infection: % of patients: 8.3%
  Epistaxis: # of patients: 3
  Epistaxis: # of total occurrences: 3
  Epistaxis: % of patients: 12.5%
  Fever: # of patients: 13
  Fever: # of total occurrences: 29
  Fever: % of patients: 54.2%
  Headache: # of patients: 6
  Headache: # of total occurrences: 17
  Headache: % of patients: 25.0%
  Injection site bruising: # of patients: 6
  Injection site bruising: # of total occurrences: 20
  Injection site bruising: % of patients: 25.0%
  Injection site erythema: # of patients: 13
  Injection site erythema: # of total occurrences: 113
  Injection site erythema: % of patients: 54.2%
  Injection site pain: # of patients: 7
  Injection site pain: # of total occurrences: 61
  Injection site pain: % of patients: 29.2%
  Injection site swelling: # of patients: 13
  Injection site swelling: # of total occurrences: 116
  Injection site swelling: % of patients: 54.2%
  Injection site urticaria: # of patients: 7
  Injection site urticaria: # of total occurrences: 19
  Injection site urticaria: % of patients: 29.2%
  Laceration: # of patients: 3
  Laceration: # of total occurrences: 3
  Laceration: % of patients: 12.5%
  Nasopharyngitis: # of patients: 2
  Nasopharyngitis: # of total occurrences: 2
  Nasopharyngitis: % of patients: 8.3%
  Other Grade 3 or higher adverse events: no other Grade 3 or higher adverse events
  Rash maculo-papular: # of patients: 2
  Rash maculo-papular: # of total occurrences: 2
  Rash maculo-papular: % of patients: 8.3%
  Rhinorrhea: # of patients: 6
  Rhinorrhea: # of total occurrences: 6
  Rhinorrhea: % of patients: 25.0%
  Scoliosis: # of patients: 3
  Scoliosis: # of total occurrences: 3
  Scoliosis: % of patients: 12.5%
  Severity and outcome of injection site reactions: grade 1 or 2 and self-resolved
  Symptomatic hypotension: no episodes of symptomatic hypotension
  Syncope: One participant
  Upper respiratory tract infection: # of patients: 2
  Upper respiratory tract infection: # of total occurrences: 2
  Upper respiratory tract infection: % of patients: 8.3%
  Vomiting: # of patients: 11
  Vomiting: # of total occurrences: 18
  Vomiting: % of patients: 45.8%

From article PMC11133798, “Vosoritide treatment for children with hypochondroplasia: a phase 2 trial” (eClinicalMedicine, 2024)
